Tested on: Energy system protein genes
Assay: DNA chip mRNA expression in yeast, energy system protein genes (Table 4)
Assay type: cell-based, Saccharomyces cerevisiae S288C
Summary of the method: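 Measured as treated-to-untreated fluorescence ratio on a full-genome yeast DNA chip. Cells (S288C, YPD, 25° C.) were exposed in log phase for two hours to one chemical, dosed to curb growth without killing.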

With Na2As [(1)] the “The level of expressed mRNA in the presence of chemical substance/The level of expressed mRNA in the absence of chemical substance” value (yeast gene YAL060W) was 1.1, the “The level of expressed mRNA in the presence of chemical substance/The level of expressed mRNA in the absence of chemical substance” value (yeast gene YBL058W, cells incubated two hours with the chemical substance) was 0.9 and the “The level of expressed mRNA in the presence of chemical substance/The level of expressed mRNA in the absence of chemical substance” value (yeast gene YBL099W, cells incubated two hours with the chemical substance) was 0.8. For the same substance, the “The level of expressed mRNA in the presence of chemical substance/The level of expressed mRNA in the absence of chemical substance” value (yeast gene YBR001C, cells incubated two hours with the chemical substance) was 0.9, the “The level of expressed mRNA in the presence of chemical substance/The level of expressed mRNA in the absence of chemical substance” value (yeast gene YBR185C, cells incubated two hours with the chemical substance) was 1.5 and the “The level of expressed mRNA in the presence of chemical substance/The level of expressed mRNA in the absence of chemical substance” value (yeast gene YBR221C, cells incubated two hours with the chemical substance) was 0.8. The “The level of expressed mRNA in the presence of chemical substance/The level of expressed mRNA in the absence of chemical substance” value (yeast gene YCL040W) was 0.9, the “The level of expressed mRNA in the presence of chemical substance/The level of expressed mRNA in the absence of chemical substance” value (yeast gene YCR012W) was 1.2 and the “The level of expressed mRNA in the presence of chemical substance/The level of expressed mRNA in the absence of chemical substance” value (yeast gene YCR046C, cells incubated two hours with the chemical substance) was 1.0. The “The level of expressed mRNA in the presence of chemical substance/The level of expressed mRNA in the absence of chemical substance” value (yeast gene YCR105W, cells incubated two hours with the chemical substance) was 2.2, the “The level of expressed mRNA in the presence of chemical substance/The level of expressed mRNA in the absence of chemical substance” value (yeast gene YDL021W) was 5.1 and the “The level of expressed mRNA in the presence of chemical substance/The level of expressed mRNA in the absence of chemical substance” value (yeast gene YDL067C, cells incubated two hours with the chemical substance) was 1.8. For the same substance, the “The level of expressed mRNA in the presence of chemical substance/The level of expressed mRNA in the absence of chemical substance” value (yeast gene YDL078C, cells incubated two hours with the chemical substance) was 0.7, the “The level of expressed mRNA in the presence of chemical substance/The level of expressed mRNA in the absence of chemical substance” value (yeast gene YDL107W, cells incubated two hours with the chemical substance) was 1.3 and the “The level of expressed mRNA in the presence of chemical substance/The level of expressed mRNA in the absence of chemical substance” value (yeast gene YDL174C) was 0.9. For the same substance, the “The level of expressed mRNA in the presence of chemical substance/The level of expressed mRNA in the absence of chemical substance” value (yeast gene YDL181W, cells incubated two hours with the chemical substance) was 1.4, the “The level of expressed mRNA in the presence of chemical substance/The level of expressed mRNA in the absence of chemical substance” value (yeast gene YDR001C) was 1.0 and the “The level of expressed mRNA in the presence of chemical substance/The level of expressed mRNA in the absence of chemical substance” value (yeast gene YDR050C, cells incubated two hours with the chemical substance) was 1.9. The “The level of expressed mRNA in the presence of chemical substance/The level of expressed mRNA in the absence of chemical substance” value (yeast gene YDR079W, cells incubated two hours with the chemical substance) was 1.3, the “The level of expressed mRNA in the presence of chemical substance/The level of expressed mRNA in the absence of chemical substance” value (yeast gene YDR178W, cells incubated two hours with the chemical substance) was 2.0 and the “The level of expressed mRNA in the presence of chemical substance/The level of expressed mRNA in the absence of chemical substance” value (yeast gene YDR231C) was 1.1. The “The level of expressed mRNA in the presence of chemical substance/The level of expressed mRNA in the absence of chemical substance” value (yeast gene YDR298C, cells incubated two hours with the chemical substance) was 1.3, the “The level of expressed mRNA in the presence of chemical substance/The level of expressed mRNA in the absence of chemical substance” value (yeast gene YDR377W, cells incubated two hours with the chemical substance) was 1.3 and the “The level of expressed mRNA in the presence of chemical substance/The level of expressed mRNA in the absence of chemical substance” value (yeast gene YDR529C, cells incubated two hours with the chemical substance) was 1.8. The “The level of expressed mRNA in the presence of chemical substance/The level of expressed mRNA in the absence of chemical substance” value (yeast gene YEL024W, cells incubated two hours with the chemical substance) was 1.5, the “The level of expressed mRNA in the presence of chemical substance/The level of expressed mRNA in the absence of chemical substance” value (yeast gene YEL039C, cells incubated two hours with the chemical substance) was 1.1 and the “The level of expressed mRNA in the presence of chemical substance/The level of expressed mRNA in the absence of chemical substance” value (yeast gene YER178W) was 0.8. The “The level of expressed mRNA in the presence of chemical substance/The level of expressed mRNA in the absence of chemical substance” value (yeast gene YFL057C) was 20.9, the “The level of expressed mRNA in the presence of chemical substance/The level of expressed mRNA in the absence of chemical substance” value (yeast gene YFR053C) was 1.8 and the “The level of expressed mRNA in the presence of chemical substance/The level of expressed mRNA in the absence of chemical substance” value (yeast gene YGL018C, cells incubated two hours with the chemical substance) was 1.5. For the same substance, the “The level of expressed mRNA in the presence of chemical substance/The level of expressed mRNA in the absence of chemical substance” value (yeast gene YGL062W) was 0.6, the “The level of expressed mRNA in the presence of chemical substance/The level of expressed mRNA in the absence of chemical substance” value (yeast gene YGL187C, cells incubated two hours with the chemical substance) was 1.5 and the “The level of expressed mRNA in the presence of chemical substance/The level of expressed mRNA in the absence of chemical substance” value (yeast gene YGL191W, cells incubated two hours with the chemical substance) was 2.3. For the same substance, the “The level of expressed mRNA in the presence of chemical substance/The level of expressed mRNA in the absence of chemical substance” value (yeast gene YGL205W, cells incubated two hours with the chemical substance) was 1.0, the “The level of expressed mRNA in the presence of chemical substance/The level of expressed mRNA in the absence of chemical substance” value (yeast gene YGL256W, cells incubated two hours with the chemical substance) was 0.9 and the “The level of expressed mRNA in the presence of chemical substance/The level of expressed mRNA in the absence of chemical substance” value (yeast gene YGR043C) was 2.6. The “The level of expressed mRNA in the presence of chemical substance/The level of expressed mRNA in the absence of chemical substance” value (yeast gene YGR062C, cells incubated two hours with the chemical substance, 25° C., YPD medium) was 0.9, the “The level of expressed mRNA in the presence of chemical substance/The level of expressed mRNA in the absence of chemical substance” value (yeast gene YGR087C, cells incubated two hours with the chemical substance) was 1.0 and the “The level of expressed mRNA in the presence of chemical substance/The level of expressed mRNA in the absence of chemical substance” value (yeast gene YGR174C, cells incubated two hours with the chemical substance) was 1.1. For the same substance, the “The level of expressed mRNA in the presence of chemical substance/The level of expressed mRNA in the absence of chemical substance” value (yeast gene YGR192C) was 1.4, the “The level of expressed mRNA in the presence of chemical substance/The level of expressed mRNA in the absence of chemical substance” value (yeast gene YGR244C) was 1.0 and the “The level of expressed mRNA in the presence of chemical substance/The level of expressed mRNA in the absence of chemical substance” value (yeast gene YGR254W) was 1.2. The “The level of expressed mRNA in the presence of chemical substance/The level of expressed mRNA in the absence of chemical substance” value (yeast gene YHR179W) was 3.3, the “The level of expressed mRNA in the presence of chemical substance/The level of expressed mRNA in the absence of chemical substance” value (yeast gene YIL160C) was 0.8 and the “The level of expressed mRNA in the presence of chemical substance/The level of expressed mRNA in the absence of chemical substance” value (yeast gene YIR031C, cells incubated two hours with the chemical substance) was 0.9. The “The level of expressed mRNA in the presence of chemical substance/The level of expressed mRNA in the absence of chemical substance” value (yeast gene YJL052W) was 1.6, the “The level of expressed mRNA in the presence of chemical substance/The level of expressed mRNA in the absence of chemical substance” value (yeast gene YJL121C, cells incubated two hours with the chemical substance) was 1.0 and the “The level of expressed mRNA in the presence of chemical substance/The level of expressed mRNA in the absence of chemical substance” value (yeast gene YJL166W, cells incubated two hours with the chemical substance) was 2.1. For the same substance, the “The level of expressed mRNA in the presence of chemical substance/The level of expressed mRNA in the absence of chemical substance” value (yeast gene YJL216C, cells incubated two hours with the chemical substance) was 1.1 and the “The level of expressed mRNA in the presence of chemical substance/The level of expressed mRNA in the absence of chemical substance” value (yeast gene YJR009C) was 1.1.
